Laboratory results published in PMC8387461, “T cell receptor recognition of hybrid insulin peptides bound to HLA-DQ8” (Nature Communications, 2021).

What was measured:
CD4+ T cell clone A3.10 = assay: T cell stimulation assay, IFNγ ELISA, clone A3.10; type: cell-based, human; settings: A3.10 T cell clone, as stated in the alanine scan section
Description: (§1) Fig. 2 Comparison of the stimulatory capacity of full-length proinsulin C-peptide and HIP on T1D CD4 + T cell clones. […] Titration of full-length 31-mer C-peptide ([…], (open circles) and 15mer C-peptide-IAPP2 HIP ([…] (filled circles). Antigen presenting cells (APC) were the EBV line, EBV-KJ, (2 × 10^4 cells/well). APC were cultured for 24 h with the same number (2 × 10^4 cells/well) of the primary CD4 + T-cell clone and the peptide concentration indicated. T-cell response to peptide were indicated by secretion of IFNγ which was measured in triplicate by ELISA and reported as pg/ml. Mean and standard deviations of triplicate IFNγ measurements are shown. Results are representative of two experiments for each clone.
(§2) For primary T1D CD4+ T cell clones, cells were thawed and used directly in functional assays. For T cell stimulation assays, cloned CD4+ T cells were incubated with BLCL KJ (; HLA-DQ8 + : HLA-DQA1*03:01, HLA-DQB1*03:02), as APCs, together with synthetic peptides. For the alanine scan experiments, each peptide was added to a final concentration of 10 μM. T cell response to antigen was measured as interferon gamma (IFNγ) secretion into the culture media. The IFNγ concentration in the culture media was determined by ELISA (Biolegend).
(§3) Supplementary Figure 8. […]
(§4) type) at each position P-3 to P12 are shown. IFNγ was measured in triplicate by ELISA, concentrations are shown in pg/ml. […]

CD4+ T cell clone A1.9 = assay: T cell stimulation assay, IFNγ ELISA, clone A1.9; type: cell-based, human; settings: primary clone A1.9, APC EBV-KJ, 24 h, 31-mer C-peptide versus 15mer HIP titration
Description: as §1, §2, §3, §4

GQVELGGGNAVEVLK [HIP]
sensitivity to HIP relative to proinsulin C-peptide (CD4+ T cell clone A3.10): 100 fold
response of clone to HIP versus proinsulin C-peptide (CD4+ T cell clone A1.9): responds equally to proinsulin C-peptide or HIP
